Drawing on US8053447B2, “11β-hydroxysteroid dehydrogenase type 1 active compounds” (High Point Pharmaceuticals, LLC, priority 2006, dated 2011), this text covers IC50 for 22 compounds.

A word on the IC50: it is the midpoint of a concentration-inhibition curve. A lower IC50 goes with greater potency.

The target of this assay is T1, h-11βHSD1 (Homo sapiens, UniProt P28845).
T1 construct: made in house
T1 sequence (P28845 whole entry): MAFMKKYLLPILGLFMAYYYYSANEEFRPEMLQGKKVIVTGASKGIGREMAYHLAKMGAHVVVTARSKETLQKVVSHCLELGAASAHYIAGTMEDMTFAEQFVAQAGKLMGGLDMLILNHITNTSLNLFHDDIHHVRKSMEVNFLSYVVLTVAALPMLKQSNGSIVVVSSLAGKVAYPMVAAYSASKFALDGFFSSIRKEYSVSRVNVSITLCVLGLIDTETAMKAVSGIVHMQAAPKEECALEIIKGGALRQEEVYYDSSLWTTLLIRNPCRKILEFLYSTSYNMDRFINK
Briefly: 11βHSD1 enzyme assay (scintillation proximity assay, 3H-cortisone to 3H-cortisol). It is filed as biochemical. Conditions: extract of yeast transformed with h-11βHSD1; 120 nM 3H-cortisone, 4 mM β-NADPH, 60 min at 30° C., SPA. As to the method:
Pharmacological Methods 11βHSD1 Enzyme Assay Materials
^3H-cortisone and anti-rabbit Ig coated scintillation proximity assay (SPA) beads were purchased from Amersham Pharmacia Biotech, β-NADPH was from Sigma and rabbit anti-cortisol antibodies were from Fitzgerald. An extract of yeast transformed with h-11βHSD1 (Hult et al., FEBS Lett, 441, 25 (1998)) was used as the source of enzyme. The test compounds were dissolved in DMSO (10 mM). All dilutions were performed in a buffer containing 50 mM TRIS-HCl (Sigma Chemical Co), 4 mM EDTA (Sigma Chemical Co), 0.1% BSA (Sigma Chemical Co), 0.01% Tween-20 (Sigma Chemical Co) and 0.005% bacitracin (Novo Nordisk A/S), pH=7.4. Optiplate 96 wells plates were supplied by Packard. The amount of ^3H-cortisol bound to the SPA beads was measured on TopCount NXT, Packard.
h-11βHSD1, 120 nM ^3H-cortisone, 4 mM β-NADPH, antibody (1:200), serial dilutions of test compound and SPA particles (2 mg/well) were added to the wells. The reaction was initiated by mixing the different components and was allowed to proceed under shaking for 60 min at 30° C. The reaction was stopped be the addition of 10 fold excess of a stopping buffer containing 500 μM carbenoxolone and 1 μM cortisone. Data was analysed using GraphPad Prism software.
In general terms: Scintillation proximity formats need no separation of bound from free tracer.
In the case of `CC(C)CC(=O)N1CCC(Oc2ccc(C(=O)N3CC4CCCC3C4)cc2)CC1` (stereo not shown) [Example 5b, 1-{4-[4-(6-Aza-bicyclo[3.2.1]-octane-6-carbonyl)-phenoxy]-piperidin-1-yl}-3-methyl-butan-1-one], the midpoint of inhibition, the IC50, lay at 1300 nM. The result for `O=C(NC1C2CC3CC(C2)CC1C3)c1ccc(O[C@H]2CC[C@@H](NC(=O)C3CC3)CC2)cc1` (stereo partly drawn) [Example 5c, Cis-N-Adamantan-2-yl-4-[4-(cyclopropanecarbonyl-amino)-cyclohexyloxy]-benzamide] reads 158 nM; that for `CC(C)NC(=O)N1CCC(COc2ccc(C(=O)N(C)C3C4CC5CC3CC(O)(C5)C4)cc2)CC1` (stereo not shown) [Example 5f, 4-{4-[(5-Hydroxy-adamantan-2-yl)-methyl-carbamoyl]-phenoxy-methyl}-piperidine-1-carboxylic acid isopropyl-amide], 1800 nM; that for `CC1(C)CC2CC(C)(CN2C(=O)c2ccc(O[C@H]3CC[C@H](C(=O)O)CC3)cc2)C1` (stereo partly drawn) [Example 6a, Trans-4-{4-(1,3,3-trimethyl-6-aza-bicyclo [3.2.1]oct-ane6-carbonyl)-phenoxy]-cyclo-hexanecarboxylic acid], 1200 nM. For the compound `O=C(N[C@H]1CC[C@@H](Oc2ccc(C(=O)N3CCCC4CCCCC43)cc2)CC1)C1CC1` (stereo partly drawn) [Example 6c, Cis-Cyclopropanecarboxylic acid {4-[4-(octahydro-quino-line-1-carbonyl)-phenoxy]-cyclohexyl}-amide], half-maximal inhibition (IC50) required 120 nM.

The compound `CN(C(=O)c1ccc(OCC2CCN(S(=O)(=O)c3cn(C)cn3)CC2)cc1)C1C2CC3CC1CC(O)(C3)C2` (stereo not shown) [Example 6f, N-(5-Hydroxy-adamantan-2-yl)-N-methyl-4-[1-(1-methyl-1H-imidazole-4-sulfonyl)-piperidin-4-ylmethoxy]-benzamide] yielded an IC50 of 2270 nM. With `O=C(O)C1CCC(Oc2ccc(C(=O)N3CC4CCC(CC4)C3)cc2)C1` (stereo not shown) [Example 7a, 3-[4-(3-Aza-bicyclo[3.2.2]-nonane-3-carbonyl)-phenoxy]-cyclopentane-carboxylic acid] the figure was 1400 nM; with `CN(C(=O)c1ccc(OC2CCC(NS(=O)(=O)c3ccccn3)CC2)cc1)C1C2CC3CC1CC(O)(C3)C2` (stereo not shown) [Example 7c, N-(5-Hydroxy-adamantan-2-yl)-N-methyl-4-[4-(pyridine-2-sulfonylamino)-cyclohexyl-oxy]-benzamide], 1120 nM; with `CCS(=O)(=O)N1CCC(COc2ccc(C(=O)N(C)C3C4CC5CC3CC(O)(C5)C4)cc2)CC1` (stereo not shown) [Example 7f, 4-(1-Ethanesulfonyl-piperidin-4-ylmethoxy)-N-(5-hydroxy-adamantan-2-yl)-N-methyl-benzamide], 2180 nM. In turn, `CC1(C)CC2CC(C)(CN2C(=O)c2ccc(OC3CCC(C(=O)O)C3)cc2)C1` (stereo not shown) [Example 8a, 3-[4-(1,3,3-Trimethyl-6-aza-bicyclo[3.2.1]octane-6-carbonyl)-phenoxy]-cyclopentane carboxylic acid] showed an IC50 of 604 nM. With `CN(C(=O)c1ccc(OC2CCC(NC(=O)C3CC3)CC2)cc1)C1C2CC3CC1CC(O)(C3)C2` (stereo not shown) [Example 8c, 4-[4-(Cyclopropanecarbonyl-amino)-cyclohexyloxy]-N-(5-hydroxy-adamantan-2-yl)-N-methyl-benzamide] the figure was 1650 nM.

In the case of `O=C(O)c1cccc(S(=O)(=O)N2CCC(COc3ccc(C(=O)N4CCCC5CCCCC54)cc3)CC2)c1` (stereo not shown) [Example 8f, 3-{4-[4-(Octahydro-quinoline-1-carbonyl)-phenoxymethyl]-piperidine-1-sulfonyl}-benzoic acid], 266 nM corresponded to half-maximal inhibition (IC50). With `O=C(O)c1ccc(S(=O)(=O)N2CCC(COc3ccc(C(=O)N4CCCC5CCCCC54)cc3)CC2)cc1` (stereo not shown) [Example 9f, 4-{4-[4-(Octahydro-quinoline-1-carbonyl)-phenoxymethyl]-piperidine-1-sulfonyl}-benzoic acid] the figure was 163 nM; with `CN(C)C(=O)C1CCC(Oc2ccc(C(=O)N3CC4(C)CC3CC(C)(C)C4)cc2)CC1` (stereo not shown) [Example 12a, 4-[4-(1,1,3,3-Trimethyl-6-aza-bicyclo[3.2.1]octane-6-carbonyl)-phenoxy]-cyclo-hexane carboxylic acid di-methylamide], 111 nM; with `NC(=O)C1CCC(Oc2ccc(C(=O)N3CCCC4CCCCC43)cc2)CC1` (stereo not shown) [Example 13a, 4-[4-(Octahydro-quinoline-1-carbonyl)-phenoxy]-cyclo-hexanecarboxylic acid amide], 73 nM. `CC1(C)CC2CC(C)(CN2C(=O)c2ccc(OC3CCC(C(=O)O)CC3)cc2)C1` (stereo not shown) [Example A, 4-[4-(1,3,3-Trimethyl-6-aza-bicyclo[3.2.1]octane-6-carbonyl)-phenoxy]cyclohexanecarboxylic acid] yielded an IC50 of 360 nM. Regarding `O=C(c1ccc(OC2CCN(C(=O)C3CC3)CC2)cc1)N1CC2CCC(CC2)C1` [Example B, (3-Aza-bicyclo[3.2.2]non-3-yl)-[4-(1-cyclopropane-carbonyl-piperidin-4-yloxy)-phenyl]-methanone], the IC50 was determined as 1350 nM. The result for `O=C(NC1CCC(Oc2ccc(C(=O)N3C4CCC3CC(O)C4)cc2)CC1)C1CC1` (stereo not shown) [Example C, Cyclopropanecarboxylic acid {4-[4-(3-hydroxy-8-aza-bicyclo[3.2.1]octane-8-carbonyl)-phenoxy]-cyclohexyl}-amide] reads 1070 nM; that for `O=C(NC1C2CC3CC(C2)CC1C3)c1ccc(OC2CCC(COc3ccccn3)CC2)cc1` (stereo not shown) [Example E, 4-[4-(Pyridin-2-yl-oxy-methyl)-cyclohexyloxy]-N-adamantan-2-yl-benzamide], 295 nM; that for `O=C(c1ccc(OCC2CCN(S(=O)(=O)c3ccccn3)CC2)cc1)N1CCCC2CCCCC21` (stereo not shown) [Example F, (Octahydro-quinolin-1-yl)-{4-[1-(pyridine-2-sulfonyl)-piperidin-4-ylmethoxy]-phenyl}-methanone], 134 nM. `O=C(c1ccc(OC2CCN(C(=O)c3ccc(Cl)nc3)C2)cc1)N1CC2CCC(CC2)C1` (stereo not shown) [Example G, {3-[4-(3-Aza-bicyclo[3.2.2]nonane-3-carbonyl)-phenoxy]-pyrrolidin-1-yl}-(6-chloro-pyridin-3-yl)-methanone] had an IC50 of 1180 nM. With `O=C(NC1C2CC3CC(C2)CC1C3)c1ccc(N2CC3CC2CO3)cc1` (stereo not shown) [Example H, 4-(2-Oxa-5-aza-bicyclo[2.2.1]hept-5-yl)-N-adamantan-2-yl-benzamide] the figure was 43 nM.
